Measurements taken from patent US20240285634A1, “COMPOUND AND METHOD FOR TREATING CHEMOTHERAPY-ASSOCIATED GASTROINTESTINAL SIDE EFFECTS” (ONQUALITY PHARMACEUTICALS CHINA LTD., priority 2021, published 2024).

Experiments:
[1] = tested on: Balb/c mice, constipation caused by continuous administration of a chemotherapeutic agent; assay: Relieving effect on constipation caused by the continuous administration of a chemotherapeutic agent (Examples 385-405); type: in vivo; conditions: for Relative remission rate (%): Fluorouracil (5-Fu) 100 mg/kg intraperitoneal injection once a day for 3 days, experimental cycle 7 days
Description: Balb/c mice were fed for 1 week, and then divided into groups. The experiment was divided into a control group, a chemotherapeutic agent group, and a group of the compound as shown in Formula I, each of which comprised 10 mice, to perform the administration experiment, for which the administration dosage, mode, time and frequency were shown in Table 6. The control group: being injected or intragastrically administered with the same solvent as that used in the group of the compound as shown in Formula I (the administration mode and time were shown in Table 6), and then being injected or intragastrically administered with the same solvent as that used in the group of the compound as shown in Formula I (the administration mode was shown in Table 6); the chemotherapeutic agent group: being injected or intragastrically administered with the same solvent as that used in the group of the compound as shown in Formula I (the administration mode and time were shown in Table 6), and then being injected or intragastrically administered with the chemotherapeutic agent (the type, administration mode, time and dosage were shown in Table 6); the group of the compound as shown in Formula I: being injected or intragastrically administered with the compound as shown in Formula I (the administration mode and time were shown in Table 6), and then being administered with the chemotherapeutic agent (the type, administration mode, time and dosage were shown in Table 6).
The feces reduction rate was calculated with reference to the method of Ji Eun Kim (Lab Anim Res. 2016 December; 32(4): 231-240.). Feces reduction rate (%)=(the control group−the chemotherapeutic agent group or the group of the compound as shown in Formula I)/the control group*100%
It is regarded as effective remission when the feces reduction rate of mice in the group of the compound as shown in Formula I is reduced compared with that in the chemotherapeutic agent group.
The feces amount of mice within 3 hours was observed and recorded every day. At the end of the experiment, the number of mice in the group of the compound as shown in Formula I whose feces reduction rate was lower than that of mice in the chemotherapeutic agent group was recorded. Table 6 lists various animal experiment combinations of chemotherapeutic agents and the compound as shown in Formula I, as well as the corresponding experimental results.

[2] = tested on: Balb/c mice, diarrhea caused by continuous administration of a chemotherapeutic agent; assay: Relieving effect on diarrhea caused by the continuous administration of a chemotherapeutic agent (Examples 365-384); type: in vivo; conditions: for Relative remission rate (%): for 3 days, cycle 8 days
Description: Balb/c mice were fed for 1 week, and then divided into groups. The experiment was divided into a control group, a chemotherapeutic agent group, and a group of the compound as shown in Formula I, each of which comprised 10 mice, to perform the administration experiment, for which the administration dosage, mode, time and frequency were shown in Table 5. The control group: being injected or intragastrically administered with the same solvent as that used in the group of the compound as shown in Formula I (the administration mode and time were shown in Table 5), and then being injected or intragastrically administered with the same solvent as that used in the chemotherapeutic agent group (the administration mode was shown in Table 5); the chemotherapeutic agent group: being injected or intragastrically administered with the same solvent as that used in the group of the compound as shown in Formula I (the administration mode and time were shown in Table 5), and then being injected or intragastrically administered with the chemotherapeutic agent (the type, administration mode, time and dosage were shown in Table 5); the group of the compound as shown in Formula I: being injected or intragastrically administered with the compound as shown in Formula I (the administration mode and time were shown in Table 5), and then being administered with the chemotherapeutic agent (the type, administration mode, time and dosage were shown in Table 5).
The scoring of diarrhea can refer to the method of Akinobu Kurita (Cancer Chemother Pharmacol 2000; 46:211-20.), Grade 0): normal feces; Grade 1: mild diarrhea, the stools is slightly wet and soft; Grade 2: moderate diarrhea, loose stools and mild perianal contamination; Grade 3: severe diarrhea, watery stools and accompanied by severe perianal staining (see FIG. 1). It is regarded as effective remission when the diarrhea grading of mice in the group of the compound as shown in Formula I is reduced compared with the average diarrhea grading of mice in the chemotherapeutic agent group.
The diarrhea grading of mice was observed and recorded every day. At the end of the experiment, the number of mice in the group of the compound as shown in Formula I whose diarrhea grading was lower than that of mice in the chemotherapeutic agent group was recorded. Table 5 lists various animal experiment combinations of chemotherapeutic agents and the compound as shown in Formula I, as well as the corresponding experimental results. (Relative remission rate %=the number of mice in the group of the compound as shown in Formula I whose diarrhea has been effectively relieved/the total number of mice in the group of the compound as shown in Formula I*100%. The establishment rate of diarrhea model in the chemotherapeutic agent group was 50%-80%, that is, about 5-8 of 10 mice developed diarrhea during the experiment, and there were cases of individual mice death or not developing diarrhea.)

[3] = continuous administration of fluorouracil for less than 7 days
[4] = continuous administration of the chemotherapeutic agent for 7 days or less
[5] = continuous administration of the chemotherapeutic agent for less than 7 days

Row | SMILES | Relative remission rate (%) ([1]; Example 398, compound 100 mg/kg intravenous injection once a day for 3 days, 2 h before the chemotherapeutic agent) | relieving effects on constipation [1, 3] | relieving effects on constipation [1, 4] | Relative remission rate (%) ([2]; Example 382, Fluorouracil (5-Fu) intravenous injection 70 mg/kg once a day, compound subcutaneous injection 100 mg/kg once a day, 12 h before chemotherapeutic agent) | relieving effects on diarrhea [2, 4] | relieving effects on diarrhea [2, 5] | Relative remission rate (%) ([1]; Example 397, compound 100 mg/kg intraperitoneal injection once a day for 3 days, 0.5 h before the chemotherapeutic agent) | Relative remission rate (%) ([2]; Example 381, Fluorouracil (5-Fu) intravenous injection 70 mg/kg once a day, compound intramuscular injection 100 mg/kg once a day, 0.5 h before chemotherapeutic agent) | Relative remission rate (%) ([1]; Example 399, compound 100 mg/kg oral administration once a day for 3 days, 4 h before the chemotherapeutic agent) | Relative remission rate (%) ([2]; Example 380, Fluorouracil (5-Fu) intraperitoneal injection 70 mg/kg once a day, compound oral administration 100 mg/kg once a day, 4 h before chemotherapeutic agent)
1 | O=C1NCC2(CCCCC2)n2c1cc1cnc(Nc3ccc(N4CCC(N5CCOCC5)CC4)cn3)nc12 [Compound III] | 40% | significant relieving effects | have relieving effects | 20% | have relieving effects | significant |  |  |  | 
2 | O=C1NCC2(CCCCC2)n2c1cc1cnc(Nc3ccc(N4CCNCC4)cn3)nc12 [Compound II] |  | significant relieving effects | have relieving effects |  | have relieving effects | significant | 20% | 40% |  | 
3 | CC(C)N1CCN(c2ccc(Nc3ncc4cc5n(c4n3)C3(CCCCC3)CNC5=O)nc2)CC1 [Compound IV, Lerociclib] |  | significant relieving effects | have relieving effects |  | have relieving effects | significant |  |  | 50% | 30%
